Data published in PubChem BioAssay (NCI).
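48-hour exposure; five concentrations; linearly interpolated endpoints. The concentration for full growth arrest is given as TGI.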

Columns and labels:
Assay in all cases: NCI tumour cell line growth inhibition, 48 h
[1] = tested on: 786-0 renal
[2] = tested on: A498 renal
[3] = tested on: A549 NSCLC
[4] = tested on: ACHN renal
[5] = tested on: BT-549 breast
[6] = tested on: CAKI-1 renal
[7] = tested on: CCRF-CEM leukemia
[8] = tested on: COLO 205 colon
[9] = tested on: DU-145 prostate
[10] = tested on: HCC-2998 colon
[11] = tested on: HCT-116 colon
[12] = tested on: HCT-15 colon
[13] = tested on: HOP-62 NSCLC
[14] = tested on: HOP-92 NSCLC
[15] = tested on: HS 578T breast
[16] = tested on: HT29 colon
[17] = tested on: IGROV1 ovarian
[18] = tested on: K-562 leukemia
[19] = tested on: KM12 colon
[20] = tested on: M14 melanoma
[21] = tested on: MALME-3M melanoma
[22] = tested on: MCF7 breast
[23] = tested on: MDA-MB-231 breast
[24] = tested on: MDA-MB-435
[25] = tested on: MDA-N
[26] = tested on: MOLT-4 leukemia
[27] = tested on: NCI-H226 lung
[28] = tested on: NCI-H23 lung
[29] = tested on: NCI-H460 lung
[30] = tested on: NCI-H522 lung
[31] = tested on: NCI/ADR-RES ovarian
[32] = tested on: OVCAR-3 ovarian
[33] = tested on: OVCAR-4 ovarian
[34] = tested on: OVCAR-5 ovarian
[35] = tested on: OVCAR-8 ovarian
[36] = tested on: PC-3 prostate
[37] = tested on: RPMI-8226 leukemia
[38] = tested on: RXF 393 renal
[39] = tested on: SF-268 CNS
[40] = tested on: SF-295 CNS
[41] = tested on: SF-539 CNS
[42] = tested on: SK-MEL-2 melanoma
[43] = tested on: SK-MEL-28 melanoma
[44] = tested on: SK-MEL-5 melanoma
[45] = tested on: SK-OV-3 ovarian
[46] = tested on: SN12C renal
[47] = tested on: SNB-75 CNS
[48] = tested on: SR leukemia
[49] = tested on: SW-620 colon
[50] = tested on: T-47D breast
[51] = tested on: TK-10 renal
[52] = tested on: U251 CNS
[53] = tested on: UACC-257 melanoma
[54] = tested on: UACC-62 melanoma
[55] = tested on: UO-31 renal
[56] = tested on: EKVX NSCLC
[57] = tested on: HL-60(TB) leukemia
[58] = tested on: LOX IMVI melanoma
[59] = tested on: SNB-19 CNS

O=C1CC(=O)NC(=NN2C(=O)CSC2c2ccccc2)N1 (stereo not given)
TGI [1]: > 100 µM
TGI [2]: > 100 µM
TGI [3]: > 100 µM
TGI [4]: > 100 µM
TGI [5]: > 100 µM
TGI [6]: > 100 µM
TGI [7]: > 100 µM
TGI [8]: > 100 µM
TGI [9]: > 100 µM
TGI [10]: > 100 µM
TGI [11]: > 100 µM
TGI [12]: > 100 µM
TGI [13]: > 100 µM
TGI [14]: > 100 µM
TGI [15]: > 100 µM
TGI [16]: > 100 µM
TGI [17]: > 100 µM
TGI [18]: > 100 µM
TGI [19]: > 100 µM
TGI [20]: > 100 µM
TGI [21]: > 100 µM
TGI [22]: > 100 µM
TGI [23]: > 100 µM
TGI [24]: > 100 µM
TGI [25]: > 100 µM
TGI [26]: > 100 µM
TGI [27]: > 100 µM
TGI [28]: > 100 µM
TGI [29]: > 100 µM
TGI [30]: > 100 µM
TGI [31]: > 100 µM
TGI [32]: > 100 µM
TGI [33]: > 100 µM
TGI [34]: > 100 µM
TGI [35]: > 100 µM
TGI [36]: > 100 µM
TGI [37]: > 100 µM
TGI [38]: > 100 µM
TGI [39]: > 100 µM
TGI [40]: > 100 µM
TGI [41]: > 100 µM
TGI [42]: > 100 µM
TGI [43]: > 100 µM
TGI [44]: > 100 µM
TGI [45]: > 100 µM
TGI [46]: > 100 µM
TGI [47]: > 100 µM
TGI [48]: > 100 µM
TGI [49]: > 100 µM
TGI [50]: > 100 µM
TGI [51]: > 100 µM
TGI [52]: > 100 µM
TGI [53]: > 100 µM
TGI [54]: > 100 µM
TGI [55]: > 100 µM

C#C[C@]1(O)CC[C@H]2[C@@H]3CCC4=CC(=NCCOC(=O)c5cccc6c(=O)c7ccccc7[nH]c56)CC[C@@H]4[C@H]3CC[C@@]21C
TGI [1]: > 100 µM
TGI [2]: > 100 µM
TGI [3]: > 100 µM
TGI [4]: > 100 µM
TGI [5]: > 100 µM
TGI [6]: > 100 µM
TGI [7]: > 100 µM
TGI [8]: > 100 µM
TGI [9]: > 100 µM
TGI [56]: > 100 µM
TGI [11]: > 100 µM
TGI [12]: > 100 µM
TGI [57]: > 100 µM
TGI [13]: > 100 µM
TGI [14]: 89.6 µM
TGI [15]: > 100 µM
TGI [16]: > 100 µM
TGI [17]: > 100 µM
TGI [18]: > 100 µM
TGI [19]: > 100 µM
TGI [58]: 84 µM
TGI [20]: > 100 µM
TGI [21]: 91.1 µM
TGI [22]: > 100 µM
TGI [23]: 72.6 µM
TGI [24]: > 100 µM
TGI [25]: > 100 µM
TGI [26]: > 100 µM
TGI [27]: > 100 µM
TGI [28]: > 100 µM
TGI [29]: > 100 µM
TGI [30]: > 100 µM
TGI [31]: > 100 µM
TGI [32]: > 100 µM
TGI [33]: > 100 µM
TGI [34]: > 100 µM
TGI [35]: 48.9 µM
TGI [36]: 55 µM
TGI [38]: 43.2 µM
TGI [39]: > 100 µM
TGI [40]: > 100 µM
TGI [42]: 95.6 µM
TGI [43]: > 100 µM
TGI [44]: > 100 µM
TGI [45]: > 100 µM
TGI [46]: > 100 µM
TGI [59]: > 100 µM
TGI [49]: > 100 µM
TGI [50]: 78.1 µM
TGI [51]: > 100 µM
TGI [52]: 51.4 µM
TGI [53]: > 100 µM
TGI [54]: > 100 µM
TGI [55]: > 100 µM

CC(C)(CN1CCCCC1)C(/C=C/c1ccc(Cl)c(Cl)c1)=N\NC(=O)N/N=C(/C=C/c1ccc(Cl)c(Cl)c1)C(C)(C)CN1CCCCC1
TGI [1]: 2.8 µM
TGI [2]: 3.11 µM
TGI [3]: 3.3 µM
TGI [4]: 3.37 µM
TGI [5]: > 10 µM
TGI [6]: 3.16 µM
TGI [7]: 3.45 µM
TGI [8]: 3.19 µM
TGI [9]: 3.33 µM
TGI [56]: 3.06 µM
TGI [10]: 3.12 µM
TGI [11]: 2.11 µM
TGI [12]: 2.56 µM
TGI [57]: 3.25 µM
TGI [13]: 3.32 µM
TGI [15]: 3.39 µM
TGI [16]: 1.25 µM
TGI [17]: 3.64 µM
TGI [18]: 0.876 µM
TGI [19]: 3.08 µM
TGI [58]: 2.5 µM
TGI [20]: 1.32 µM
TGI [21]: 2.95 µM
TGI [22]: 3.09 µM
TGI [23]: 3.71 µM
TGI [24]: 2.57 µM
TGI [25]: 2.75 µM
TGI [26]: 8.74 µM
TGI [27]: 4.1 µM
TGI [28]: 3.4 µM
TGI [29]: 2.77 µM
TGI [30]: 3.56 µM
TGI [31]: 3.32 µM
TGI [32]: 2.91 µM
TGI [33]: 3.19 µM
TGI [34]: 2.97 µM
TGI [35]: 3.38 µM
TGI [36]: > 10 µM
TGI [37]: 9 µM
TGI [38]: 1.99 µM
TGI [39]: 3.15 µM
TGI [40]: 3.07 µM
TGI [41]: 3.25 µM
TGI [42]: > 10 µM
TGI [43]: 3.16 µM
TGI [44]: 3.5 µM
TGI [45]: 3.33 µM
TGI [46]: 3.24 µM
TGI [59]: 3.22 µM
TGI [47]: 3.12 µM
TGI [49]: 3.13 µM
TGI [50]: 4.1 µM
TGI [51]: 3.08 µM
TGI [52]: 3.13 µM
TGI [53]: 3.08 µM
TGI [54]: 3.4 µM
TGI [55]: 5.56 µM

C#C[C@]1(O)CC[C@H]2[C@@H]3CCC4=CC(=NCCOC(=O)c5cccc6cc7ccccc7nc56)CC[C@@H]4[C@H]3CC[C@@]21C
TGI [1]: > 100 µM
TGI [2]: > 100 µM
TGI [3]: > 100 µM
TGI [4]: > 100 µM
TGI [5]: 74.2 µM
TGI [6]: > 100 µM
TGI [7]: > 100 µM
TGI [8]: > 100 µM
TGI [9]: > 100 µM
TGI [56]: > 100 µM
TGI [11]: > 100 µM
TGI [12]: 43.1 µM
TGI [57]: > 100 µM
TGI [13]: > 100 µM
TGI [14]: 48.6 µM
TGI [15]: 63.8 µM
TGI [16]: > 100 µM
TGI [17]: 30.8 µM
TGI [18]: > 100 µM
TGI [19]: 97.2 µM
TGI [58]: 24.8 µM
TGI [20]: 61.3 µM
TGI [21]: 74.4 µM
TGI [22]: 69.4 µM
TGI [23]: 44.8 µM
TGI [24]: > 100 µM
TGI [25]: > 100 µM
TGI [26]: > 100 µM
TGI [27]: > 100 µM
TGI [28]: 62.5 µM
TGI [29]: 35.8 µM
TGI [30]: 45.6 µM
TGI [31]: 81.3 µM
TGI [32]: > 100 µM
TGI [33]: > 100 µM
TGI [34]: > 100 µM
TGI [35]: 21.9 µM
TGI [36]: 34.9 µM
TGI [38]: 28.3 µM
TGI [39]: 72.3 µM
TGI [40]: 67.6 µM
TGI [42]: 53.9 µM
TGI [43]: > 100 µM
TGI [44]: > 100 µM
TGI [45]: > 100 µM
TGI [46]: > 100 µM
TGI [59]: > 100 µM
TGI [49]: > 100 µM
TGI [50]: 75.9 µM
TGI [51]: > 100 µM
TGI [52]: 25.2 µM
TGI [53]: > 100 µM
TGI [54]: 96.1 µM
TGI [55]: > 100 µM

CC(=O)OC1CC2(C)C(OC(C)=O)CC1C2(C)C (stereo not given)
TGI [1]: > 100 µM
TGI [3]: > 100 µM
TGI [4]: > 100 µM
TGI [5]: > 100 µM
TGI [7]: > 100 µM
TGI [8]: > 100 µM
TGI [9]: > 100 µM
TGI [10]: > 100 µM
TGI [11]: > 100 µM
TGI [12]: > 100 µM
TGI [57]: > 100 µM
TGI [13]: > 100 µM
TGI [14]: > 100 µM
TGI [15]: > 100 µM
TGI [16]: > 100 µM
TGI [17]: > 100 µM
TGI [18]: > 100 µM
TGI [19]: > 100 µM
TGI [58]: > 100 µM
TGI [20]: > 100 µM
TGI [21]: > 100 µM
TGI [22]: > 100 µM
TGI [23]: > 100 µM
TGI [24]: > 100 µM
TGI [25]: > 100 µM
TGI [26]: > 100 µM
TGI [27]: > 100 µM
TGI [28]: > 100 µM
TGI [29]: > 100 µM
TGI [30]: > 100 µM
TGI [31]: > 100 µM
TGI [32]: > 100 µM
TGI [33]: > 100 µM
TGI [34]: > 100 µM
TGI [35]: > 100 µM
TGI [36]: > 100 µM
TGI [37]: > 100 µM
TGI [38]: > 100 µM
TGI [39]: > 100 µM
TGI [40]: > 100 µM
TGI [41]: > 100 µM
TGI [43]: > 100 µM
TGI [44]: > 100 µM
TGI [45]: > 100 µM
TGI [46]: > 100 µM
TGI [59]: > 100 µM
TGI [47]: > 100 µM
TGI [48]: > 100 µM
TGI [49]: > 100 µM
TGI [50]: > 100 µM
TGI [51]: > 100 µM
TGI [52]: > 100 µM
TGI [53]: > 100 µM
TGI [54]: > 100 µM
TGI [55]: > 100 µM
